The values that follow come from US11472831B2, “Isotopically labeled bile acid derivatives” (Intercept Pharmaceuticals, Inc., priority 2017, dated 2022).

For orientation: bioavailability means dose-corrected exposure relative to a reference, in per cent. A word on the clearance: it is the rate of elimination divided by the concentration.

Series [1] is described as follows: Clinical study Part 1, Regimen A: oral plasma PK and absolute bioavailability of 25 mg OCA tablet. In kind it is in vivo, human. The protocol:
The objectives of this study were to determine the absolute bioavailability of OCA, and evaluate the absorption, distribution, metabolism, and excretion of OCA in healthy male subjects. In addition, the oral pharmacokinetics (PK) of OCA and carbon-14 ([^14C]-OCA, and intravenous (IV) PK of [^14C]-OCA were evaluated.
The PK objectives of Part 1 were to determine the absolute bioavailability of OCA, to define the intravenous (IV) PK of a microtracer dose of [14C] OCA, and to evaluate the oral PK of OCA. In Part 1, subjects were administered the oral dose (Regimen A: 25 mg OCA tablet), followed by the IV microtracer dose (Regimen B: 100 μg [14C]-OCA) 1 hour 45 minutes after the oral dose administration. The 15 minute IV infusion ended at the estimated tmax for the oral dose (2 hours).
To evaluate the oral PK, plasma concentrations of OCA and its conjugates were measured following an oral dose (Regimen A: 25 mg OCA). OCA was rapidly absorbed; the median tmax was 0.5 hrs. Following Cmax, OCA concentration declined rapidly within 4 hours, consistent with the IV profile of OCA. Subsequent OCA concentrations remained, on average, less than 10% of Cmax up to 72 hours post-dose. A prolonged profile of OCA was observed over the course of 72 hours (FIG. 4). This low level persistence of parent OCA is most likely due to deconjugation of glyco-OCA and tauro-OCA by commensal bacteria in the ileum and colon, followed by reabsorption of OCA.
Mean (SD) plasma concentrations over time of total OCA (the sum of OCA, glyco-OCA, and tauro-OCA) are presented in FIG. 15 (Note: Total OCA calculated as sum of OCA, glyco-OCA, and tauro-OCA concentrations at each time point, glyco-OCA, and tauro-OCA concentrations at each time point expressed as mass equivalents of OCA). Consistent with the [^14C]-OCA results, the maximum exposure of total OCA occurred after a meal, consistent with gallbladder release and enterohepatic recirculation, leading to exposure levels being observed up to 72 hours post-dose. Based on overall exposure of total OCA (AUC0-t), glyco-OCA and tauro-OCA are the primary components of exposure, with minimal contribution (less than 10%) from the parent (OCA).
Absolute bioavailability was determined by the ratio of dose normalized AUC for oral dose/dose normalized AUC for IV dose. […] This relatively low value for bioavailability is consistent with the efficient uptake typical of bile acids into the liver, the primary site of action of OCA. PK results were as expected for a bile acid. OCA is rapidly absorbed in the intestine and taken up in the liver, where it is conjugated with glycine and taurine. Glyco-OCA and tauro-OCA were the primary components of exposure, with minimal contribution from the parent (OCA). Enterohepatic recirculation produced an extended profile, with maximum exposure occurring after meals.

Series [2] can be described thus: Clinical study Part 2, Regimen C: plasma PK and metabolite profile after 25 mg oral dose of [14C]-OCA. It is filed as in vivo, human. To be noted: for AUC0-t / Cmax / tmax: plasma; for AUC0-t / Cmax: mean (SD); for circulating OCA metabolites other than glyco-OCA and tauro-OCA: metabolite profiling of radioactivity, mass spectrometry, authentic standards. The text has this:
Part 2 also evaluated the extent of distribution of total radioactivity into blood cells, and identified metabolites accounting for more than 10% of circulating total radioactivity. The concentrations of total radioactivity and total OCA in plasma over time are shown in FIG. 16 (Note: Total OCA calculated as sum of OCA, glyco-OCA, and tauro-OCA concentrations at each time point, glyco-OCA, and tauro-OCA concentrations at each time point expressed as mass equivalents of OCA) and FIG. 17 (Note: Total OCA calculated as sum of OCA, glyco-OCA, and tauro-OCA concentrations at each time point, glyco-OCA, and tauro-OCA concentrations at each time point expressed as mass equivalents of OCA. Units for total radioactivity are mass equivalent to OCA (i.e. ng-eq OCA/mL)). […] Two additional OCA metabolites were identified: OCA-3 glucuronide and OCA-24 glucuronide, based on the metabolite profiling of radioactivity, mass spectrometry, and authentic standards for the glucuronide metabolites. […] Following Cmax, OCA concentration declined rapidly within the first 4 hours. The maximum exposure of total OCA, including the conjugates, occurred after meals, consistent with gallbladder release and enterohepatic recirculation, leading to exposure levels being observed over the approximately 4-week sampling period.

The conditions of series [3]: statement, no data shown; cited from earlier work.
The target in series [4] is T1, farnesoid X receptor (FXR) (Homo sapiens, UniProt Q96RI1).
T1 sequence (Q96RI1 1-486): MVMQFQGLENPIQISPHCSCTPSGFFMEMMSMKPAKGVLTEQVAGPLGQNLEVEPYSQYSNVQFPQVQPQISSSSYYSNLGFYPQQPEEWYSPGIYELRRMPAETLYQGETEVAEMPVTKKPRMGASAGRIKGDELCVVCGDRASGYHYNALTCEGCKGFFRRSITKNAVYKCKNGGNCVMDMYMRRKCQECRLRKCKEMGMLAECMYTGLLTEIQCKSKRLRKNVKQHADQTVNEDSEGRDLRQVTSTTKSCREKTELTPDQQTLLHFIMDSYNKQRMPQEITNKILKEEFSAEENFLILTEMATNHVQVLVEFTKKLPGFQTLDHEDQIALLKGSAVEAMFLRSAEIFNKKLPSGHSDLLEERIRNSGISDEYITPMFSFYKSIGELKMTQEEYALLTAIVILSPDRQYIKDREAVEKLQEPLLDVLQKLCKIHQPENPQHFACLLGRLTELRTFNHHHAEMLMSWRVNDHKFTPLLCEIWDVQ
To be noted: background statement; cited from earlier work.

The conditions of series [5]: rat; single oral administration of [14C] OCA.
Excerpt: Preclinical mass balance and radiolabeled single dose PK studies in the rat have examined biliary, urinary, and fecal excretion of OCA and its metabolites.
Series [6] is described as follows: Clinical study Part 1, Regimen B: IV plasma PK of 100 μg microtracer dose of [14C]-OCA. It is filed as in vivo, human. As for the experimental part:
The objectives of this study were to determine the absolute bioavailability of OCA, and evaluate the absorption, distribution, metabolism, and excretion of OCA in healthy male subjects. […] Mean plasma concentrations of total radioactivity are shown in FIG. 12, and of [^14C]-OCA in FIG. 13. The highest concentration of radioactivity in plasma was measured after completion of the IV dose, and the concentrations of OCA declined rapidly within 4 hours. After the initial decline, a low-level, prolonged profile of OCA and total radioactivity was observed, as expected due to enterohepatic recirculation.

Series [7] is described as follows: Clinical study Part 2: mass balance recovery of radioactivity in urine and feces after 25 mg oral [14C]-OCA. In kind it is in vivo, human. As for the experimental part: Part 2 also evaluated the extent of distribution of total radioactivity into blood cells, and identified metabolites accounting for more than 10% of circulating total radioactivity. The mean cumulative recovery (cumulative % Ae (Amount excreted)) of radioactivity in the urine and feces of subjects receiving oral [^14C]-OCA is shown in FIG. 18. […] The majority of drug-related material in the feces was recovered within 552 hours of dosing with investigational product. In Part 2 (Mass Balance), the mass balance data confirmed that the primary elimination route of OCA is through the feces. A mean of 87% of administered radioactivity was recovered from the feces over the entire collection period, and a minor percentage (<3%) was recovered from the urine.

The mark [8] stands for this setting: plasma, single oral dose 25 mg OCA tablet, mean (SD), N = 5.
The mark [9] stands for this setting: plasma, single oral dose 25 mg OCA tablet, median and range, N = 5.
[10] abbreviates: 25 mg oral dose of [14C]-OCA, N = 8.
[11] abbreviates: 25 mg oral dose of [14C]-OCA, median and range, N = 8.
Setting [12] is: male, human, plasma [14C]-OCA, 15 minute IV infusion of 100 μg [14C]-OCA, mean (SD), N = 5.
Setting [13] is: by 504 hours postdose, single oral 25 mg [14C]-OCA.
The mark [14] stands for this setting: over the entire collection period.

Turning to `CC[C@H]1[C@@H](O)[C@@H]2[C@H](CC[C@]3(C)[C@@H]([C@H](C)CCC(=O)NCC(=O)O)CC[C@@H]23)[C@@]2(C)CC[C@@H](O)C[C@@H]12` [Glyco-OCA], the AUC0-t in series [1] (setting [8]) is on record as 1540 (480.7) hours*ng/mL; in series [2] (setting [10]), 4690 (2232) ^ hours*ng/mL. Moreover, the values for the Cmax in series [1] (setting [8]) and in series [2] (setting [10]) were 57.4 (24.43) ng/mL and 73.8 (39.96) ng/mL, respectively. Moreover, the tmax is reported as 8.000 (2.00, 36.00) h in series [1] (setting [9]) and 10.0 (3.00, 36.0) h in series [2] (setting [11]). In series [3], the “pharmacological action compared with parent drug (OCA)” value is “equipotent”.
Consider `CC[C@H]1[C@@H](O)[C@@H]2[C@H](CC[C@]3(C)[C@@H]([C@H](C)CCC(=O)O)CC[C@@H]23)[C@@]2(C)CC[C@@H](O)C[C@@H]12` [OCA, 3α,7α-dihydroxy-6α-ethyl-5β-cholan-24-oic acid], for which the bioavailability in series [1] (male, human, plasma, oral, 25 mg, ratio of dose normalized AUC oral 25 mg OCA / IV 100 μg [14C]-OCA, mean (SD), N = 5, read-out: F (absolute bioavailability)) is approximately 17%. For the same compound, the tmax in series [1] (male, human, plasma, oral 25 mg OCA, read-out: median tmax) is 30 min; in series [1] (setting [9]), 0.500 (0.50, 2.03) h; in series [2] (male, human, 25 mg oral [14C]-OCA, read-out: median tmax), 75 min; in series [2] (setting [11]) it was 1.25 (0.750, 2.50) h. Further, the AUC0-t is 144 ng·h/mL in series [1] (male, human, plasma, single oral dose 25 mg OCA tablet, mean (SD), N = 5, read-out: AUC0-t) and 475 ng·h/mL in series [2] (male, human, 25 mg oral dose of [14C]-OCA, N = 8, read-out: AUC0-t). The Cmax in series [1] (male, human, plasma, single oral dose 25 mg OCA tablet, mean (SD), N = 5, read-out: Cmax) was found to be 80.9 ng/mL; in series [2] (male, human, 25 mg oral dose of [14C]-OCA, N = 8, read-out: Cmax), 63.7 ng/mL. Moreover, the “subsequent OCA plasma concentrations relative to Cmax” value in series [1] (on average, after the decline within 4 hours, up to 72 hours post-dose, oral 25 mg OCA) was “less than 10%”. The “contribution of parent to overall exposure of total OCA (AUC0-t)” value in series [1] (oral 25 mg OCA) is on record as “less than 10%”. Moreover, the “FXR activity” value in series [4] was “highly potent FXR modulator”.
Regarding `CC[C@H]1[C@@H](O)C2C3CC[C@H]([C@H](C)CCC(=O)O)[C@@]3(C)CCC2[C@@]2(C)CC[C@@H](O)C[C@@H]12` (some centres unmarked) [[^14C]-OCA, [^14C]OCA], in series [5], the “route of excretion of radioactivity” value was “excreted mainly in the feces”. Further, the “Vs (volume of distribution)” value in series [6] (15 minute IV infusion of 100 μg [14C]-OCA, mean (SD), N = 5) is recorded as 618 (341.9) L. In series [6] (male, human, plasma, 15 minute IV infusion of 100 μg [14C]-OCA, mean (SD), N = 5, read-out: CL (total plasma clearance) (converted)), the clearance is 417 mL/min. Besides, the Vd in series [6] (male, human, plasma, 15 minute IV infusion of 100 μg [14C]-OCA, mean (SD), N = 5, read-out: Vss (volume of distribution at steady state)) stood at 210 L. Also, in series [6] (setting [12]), the AUC0-t stood at 3.86 ng·h/mL and the Cmax came out at 9.71 ng/mL. For the same compound, in series [6] (over 72 hours, IV 100 μg [14C]-OCA), the “AUC0-t of [14C]-OCA as share of the total radioactive exposure” value is listed as “approximately 20%”. Besides, the “total radioactivity administered recovered from feces, mean” value in series [7] (at 1152 hours) was found to be 87.0%. Besides, in series [7] (setting [13]), the “radioactivity recovered from feces, average” value is on record as 72.3%; the “total radioactivity administered recovered from urine and feces, mean” value was found to be 75.1%. Besides, in series [7] (setting [14]), the “administered radioactivity recovered from the feces, mean” value stood at 87% and the “administered radioactivity recovered from the urine” value is less than 3%. For the same compound, the “total radioactivity recovered from the urine, average” value in series [7] (single oral 25 mg [14C]-OCA) came to 2.83%.
As for `CC[C@H]1[C@@H](O)C2C3CC[C@H]([C@H](C)CCC(=O)O)[C@@]3(C)CCC2[C@@]2(C)CC[C@@H](O[C@@H]3O[C@H](C(=O)O)[C@@H](O)[C@H](O)[C@H]3O)C[C@@H]12` (some centres unmarked) [OCA-3 glucuronide, OCA-3-O-Glucuronide], in series [2], the “circulating OCA metabolites other than glyco-OCA and tauro-OCA” value is reported as “identified”.
As for `CC[C@H]1[C@@H](O)[C@H]2C3CC[C@H]([C@H](C)CCC(=O)O[C@@H]4O[C@H](C(=O)O)[C@@H](O)[C@H](O)[C@H]4O)[C@@]3(C)CC[C@@H]2[C@@]2(C)CC[C@@H](O)C[C@@H]12` (some centres unmarked) [OCA-24 glucuronide], the “circulating OCA metabolites other than glyco-OCA and tauro-OCA” value in series [2] was “identified”.
As to `CC[C@H]1[C@@H](O)[C@@H]2[C@H](CC[C@]3(C)[C@@H]([C@H](C)CCC(=O)NCCS(=O)(=O)O)CC[C@@H]23)[C@@]2(C)CC[C@@H](O)C[C@@H]12` [Tauro-OCA], the AUC0-t in series [1] (setting [8]) is given as 624 (159.6) hours*ng/mL; in series [2] (setting [10]), 2550 (2155) ^ hours*ng/mL. In addition, the Cmax in series [1] (setting [8]) was 23.1 (7.412) ^ ng/mL; in series [2] (setting [10]) it was 24.4 (14.21) ng/mL. Besides, the tmax in series [1] (setting [9]) was 36.000 (2.00, 60.00) h; in series [2] (setting [11]), 9.03 (2.50, 36.0) h. In series [3], the “pharmacological action compared with parent drug (OCA)” value is listed as “equipotent”.
